Data: patent US9265253B2, “Use of macrocyclic picolinamides as fungicides” (DOW AGROSCIENCES LLC, priority 2013, dated 2016)

system: Mycosphaerella graminicola; Anamorph: Septoria tritici; assay: Leaf Blotch of Wheat (SEPTTR) disease control; format: in vivo; settings: Zymoseptoria tritici, 24 h, 1 Day Protectant, rate 100 ppm; read-out: SEPTTR 1 DP disease control
Procedure, shortened: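 Preventive or curative tests: first-leaf Yuma wheat, sprayed to run-off, inoculated with S. tritici, dew chamber at 100% humidity, then greenhouse at 20° C. Severity on the first leaf is scored on a 0–100% scale and expressed as % control against untreated plants.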

Row | Structure (SMILES) | pest or weed control at 100 ppm
1 | CCCO[C@@H]1[C@@H](Cc2ccc(OC)cc2)CCC[C@H](NC(=O)c2nccc(OC)c2OCOC(C)=O)C(=O)O[C@H]1C [Compound F119] | 80 to 100%
2 | CCOCC(=O)OCOc1c(OC)ccnc1C(=O)N[C@H]1CCC[C@H](Cc2ccccc2)[C@@H](OCC2CC2)[C@H](C)OC1=O [Compound F173] | 80 to 100%
3 | COc1ccnc(C(=O)N[C@H]2CCC[C@H](Cc3ccccc3)[C@@H](OCC3CC3)[C@H](C)OC2=O)c1OCOC(C)=O [Compound F107] | 80 to 100%
4 | COc1ccc(C[C@H]2CCC[C@H](NC(=O)c3nccc(OC)c3OCOC(C)=O)C(=O)O[C@@H](C)[C@@H]2OCC(C)C)cc1 [Compound F118] | 80 to 100%

same assay, conditions: Zymoseptoria tritici, 24 h, 1 Day Protectant, rate 121.5 g/H; read-out: SEPTTR 1 DP disease control

Row | Structure (SMILES) | pest or weed control at 121.5 g/ha
5 | CCCO[C@@H]1[C@@H](Cc2ccc(OC)cc2)CCC[C@H](NC(=O)c2nccc(OC)c2OCOC(C)=O)C(=O)O[C@H]1C [Compound F119] | 80 to 100%
6 | CCOCC(=O)OCOc1c(OC)ccnc1C(=O)N[C@H]1CCC[C@H](Cc2ccccc2)[C@@H](OCC2CC2)[C@H](C)OC1=O [Compound F173] | 80 to 100%
7 | COc1ccnc(C(=O)N[C@H]2CCC[C@H](Cc3ccccc3)[C@@H](OCC3CC3)[C@H](C)OC2=O)c1OCOC(C)=O [Compound F107] | 80 to 100%
8 | COc1ccc(C[C@H]2CCC[C@H](NC(=O)c3nccc(OC)c3OCOC(C)=O)C(=O)O[C@@H](C)[C@@H]2OCC(C)C)cc1 [Compound F118] | 80 to 100%

same assay, conditions: Zymoseptoria tritici, 72 h, 3 Day Curative, rate 100 ppm; read-out: SEPTTR 3 DC disease control

Row | Structure (SMILES) | pest or weed control at 100 ppm
9 | CCCO[C@@H]1[C@@H](Cc2ccc(OC)cc2)CCC[C@H](NC(=O)c2nccc(OC)c2OCOC(C)=O)C(=O)O[C@H]1C [Compound F119] | 80 to 100%
10 | CCOCC(=O)OCOc1c(OC)ccnc1C(=O)N[C@H]1CCC[C@H](Cc2ccccc2)[C@@H](OCC2CC2)[C@H](C)OC1=O [Compound F173] | 80 to 100%
11 | COc1ccnc(C(=O)N[C@H]2CCC[C@H](Cc3ccccc3)[C@@H](OCC3CC3)[C@H](C)OC2=O)c1OCOC(C)=O [Compound F107] | 80 to 100%
12 | COc1ccc(C[C@H]2CCC[C@H](NC(=O)c3nccc(OC)c3OCOC(C)=O)C(=O)O[C@@H](C)[C@@H]2OCC(C)C)cc1 [Compound F118] | 80 to 100%

same assay, conditions: Zymoseptoria tritici, 72 h, 3 Day Curative, rate 121.5 g/H; read-out: SEPTTR 3 DC disease control

Row | Structure (SMILES) | pest or weed control at 121.5 g/ha
13 | CCCO[C@@H]1[C@@H](Cc2ccc(OC)cc2)CCC[C@H](NC(=O)c2nccc(OC)c2OCOC(C)=O)C(=O)O[C@H]1C [Compound F119] | 80 to 100%
14 | CCOCC(=O)OCOc1c(OC)ccnc1C(=O)N[C@H]1CCC[C@H](Cc2ccccc2)[C@@H](OCC2CC2)[C@H](C)OC1=O [Compound F173] | 80 to 100%
15 | COc1ccnc(C(=O)N[C@H]2CCC[C@H](Cc3ccccc3)[C@@H](OCC3CC3)[C@H](C)OC2=O)c1OCOC(C)=O [Compound F107] | 80 to 100%
16 | COc1ccc(C[C@H]2CCC[C@H](NC(=O)c3nccc(OC)c3OCOC(C)=O)C(=O)O[C@@H](C)[C@@H]2OCC(C)C)cc1 [Compound F118] | 80 to 100%

system: Alternaria solani; assay: Tomato Early Blight (ALTESO) disease control; format: in vivo; settings: Alternaria solani, topical, 24 h, 1 Day Protectant, read-out: Disease Control ALTESO 1 DP
Protocol: Technical grades of materials were dissolved in acetone, which were then mixed with nine volumes of water containing 110 ppm Triton X-100. The fungicide solutions were applied onto wheat seedlings using an automated booth sprayer to run-off. All sprayed plants were allowed to air dry prior to further handling. All fungicides were evaluated using the aforementioned method for their activity vs. all target diseases. Wheat leaf blotch and brown rust activity were also evaluated using track spray applications, in which case the fungicides were formulated as EC formulations, containing 0.1% Trycol 5941 in the spray solutions. Wheat plants (variety Yuma) were grown from seed in a greenhouse in 50% mineral soil/50% soil-less Metro mix until the first leaf was fully emerged, with 7-10 seedlings per pot. These plants were inoculated with an aqueous spore suspension of Septoria tritici either prior to or after fungicide treatments. After inoculation the plants were kept in 100% relative humidity (one day in a dark dew chamber followed by two to three days in a lighted dew chamber at 20° C.) to permit spores to germinate and infect the leaf. The plants were then transferred to a greenhouse set at 20° C. for disease to develop. When disease symptoms were fully expressed on the 1st leaves of untreated plants, infection levels were assessed on a scale of 0 to 100 percent disease severity. Percent disease control was calculated using the ratio of disease severity on treated plants relative to untreated plants. Tomato plants (variety Outdoor girl) were propagated in soil-less Metro mix, with each pot having one plant, and used when 12 to 14 days old. Test plants were inoculated with an aqueous spore suspension of Alternaria solani 24 hr after fungicide treatments. After inoculation the plants were kept in 100% relative humidity (one day in a dark dew chamber followed by two to three days in a lighted dew chamber at 20° C.) to permit spores to germinate and infect the leaf. The plants were then transferred to a growth room at 22° C. for disease to develop. Fungicide formulation, application and disease assessment on the sprayed leaves followed the procedures as described in the Example A.

Row | Structure (SMILES) | pest or weed control at 100 ppm
17 | CCCO[C@@H]1[C@@H](Cc2ccc(OC)cc2)CCC[C@H](NC(=O)c2nccc(OC)c2OCOC(C)=O)C(=O)O[C@H]1C [Compound F119] | 0 to 80%
18 | CCOCC(=O)OCOc1c(OC)ccnc1C(=O)N[C@H]1CCC[C@H](Cc2ccccc2)[C@@H](OCC2CC2)[C@H](C)OC1=O [Compound F173] | 80 to 100%
19 | COc1ccnc(C(=O)N[C@H]2CCC[C@H](Cc3ccccc3)[C@@H](OCC3CC3)[C@H](C)OC2=O)c1OCOC(C)=O [Compound F107] | 80 to 100%
20 | COc1ccc(C[C@H]2CCC[C@H](NC(=O)c3nccc(OC)c3OCOC(C)=O)C(=O)O[C@@H](C)[C@@H]2OCC(C)C)cc1 [Compound F118] | 0 to 80%

system: Puccinia triticina; Synonym: Puccinia recondite f. Sp. Tritici; assay: Wheat Brown Rust (PUCCRT) disease control; format: in vivo; settings: Puccinia triticina, topical, 24 h, 1 Day Protectant, rate 100 ppm; read-out: PUCCRT 1 DP disease control
Procedure, shortened: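 Brown rust on first-leaf Yuma wheat: spore inoculation before or after spray application (acetone/Triton X-100 solution, or EC with Trycol in track spray), overnight 100% RH at 22 °C, disease developed at 24 °C. Severity scored 0–100% and converted to percent control against untreated.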

Row | Structure (SMILES) | pest or weed control at 100 ppm
21 | CCCO[C@@H]1[C@@H](Cc2ccc(OC)cc2)CCC[C@H](NC(=O)c2nccc(OC)c2OCOC(C)=O)C(=O)O[C@H]1C [Compound F119] | 80 to 100%
22 | CCOCC(=O)OCOc1c(OC)ccnc1C(=O)N[C@H]1CCC[C@H](Cc2ccccc2)[C@@H](OCC2CC2)[C@H](C)OC1=O [Compound F173] | 80 to 100%
23 | COc1ccnc(C(=O)N[C@H]2CCC[C@H](Cc3ccccc3)[C@@H](OCC3CC3)[C@H](C)OC2=O)c1OCOC(C)=O [Compound F107] | 80 to 100%
24 | COc1ccc(C[C@H]2CCC[C@H](NC(=O)c3nccc(OC)c3OCOC(C)=O)C(=O)O[C@@H](C)[C@@H]2OCC(C)C)cc1 [Compound F118] | 80 to 100%

same assay, conditions: Puccinia triticina, topical, 24 h, 1 Day Protectant, rate 121.5 g/H; read-out: PUCCRT 1 DP disease control

Row | Structure (SMILES) | pest or weed control at 121.5 g/ha
25 | CCCO[C@@H]1[C@@H](Cc2ccc(OC)cc2)CCC[C@H](NC(=O)c2nccc(OC)c2OCOC(C)=O)C(=O)O[C@H]1C [Compound F119] | 80 to 100%
26 | CCOCC(=O)OCOc1c(OC)ccnc1C(=O)N[C@H]1CCC[C@H](Cc2ccccc2)[C@@H](OCC2CC2)[C@H](C)OC1=O [Compound F173] | 80 to 100%
27 | COc1ccnc(C(=O)N[C@H]2CCC[C@H](Cc3ccccc3)[C@@H](OCC3CC3)[C@H](C)OC2=O)c1OCOC(C)=O [Compound F107] | 80 to 100%
28 | COc1ccc(C[C@H]2CCC[C@H](NC(=O)c3nccc(OC)c3OCOC(C)=O)C(=O)O[C@@H](C)[C@@H]2OCC(C)C)cc1 [Compound F118] | 80 to 100%

same assay, conditions: Puccinia triticina, topical, 72 h, 3 Day Curative, rate 100 ppm; read-out: PUCCRT 3 DC disease control

Row | Structure (SMILES) | pest or weed control at 100 ppm
29 | CCCO[C@@H]1[C@@H](Cc2ccc(OC)cc2)CCC[C@H](NC(=O)c2nccc(OC)c2OCOC(C)=O)C(=O)O[C@H]1C [Compound F119] | 80 to 100%
30 | CCOCC(=O)OCOc1c(OC)ccnc1C(=O)N[C@H]1CCC[C@H](Cc2ccccc2)[C@@H](OCC2CC2)[C@H](C)OC1=O [Compound F173] | 80 to 100%
31 | COc1ccnc(C(=O)N[C@H]2CCC[C@H](Cc3ccccc3)[C@@H](OCC3CC3)[C@H](C)OC2=O)c1OCOC(C)=O [Compound F107] | 80 to 100%
32 | COc1ccc(C[C@H]2CCC[C@H](NC(=O)c3nccc(OC)c3OCOC(C)=O)C(=O)O[C@@H](C)[C@@H]2OCC(C)C)cc1 [Compound F118] | 80 to 100%

same assay, conditions: Puccinia triticina, topical, 72 h, 3 Day Curative, rate 121.5 g/H; read-out: PUCCRT 3 DC disease control

Row | Structure (SMILES) | pest or weed control at 121.5 g/ha
33 | CCCO[C@@H]1[C@@H](Cc2ccc(OC)cc2)CCC[C@H](NC(=O)c2nccc(OC)c2OCOC(C)=O)C(=O)O[C@H]1C [Compound F119] | 80 to 100%
34 | CCOCC(=O)OCOc1c(OC)ccnc1C(=O)N[C@H]1CCC[C@H](Cc2ccccc2)[C@@H](OCC2CC2)[C@H](C)OC1=O [Compound F173] | 80 to 100%
35 | COc1ccnc(C(=O)N[C@H]2CCC[C@H](Cc3ccccc3)[C@@H](OCC3CC3)[C@H](C)OC2=O)c1OCOC(C)=O [Compound F107] | 80 to 100%
36 | COc1ccc(C[C@H]2CCC[C@H](NC(=O)c3nccc(OC)c3OCOC(C)=O)C(=O)O[C@@H](C)[C@@H]2OCC(C)C)cc1 [Compound F118] | 80 to 100%
